Results from US20170265465A1, “BIORATIONAL TREATMENT PRODUCTS AND METHODS OF USING SAME” (Board of Trustees of Michigan State University, priority 2014, published 2017).

Test system: winter-dormant creeping bentgrass putting green (Agrostis palustris)
Test: Example 4, 2013 spring green-up/winter dormancy break study: turfgrass quality rating
Format: in vivo
Conditions: May 11, 2013; scale 1-9, 7 = acceptable; per 1000 ft^2, as far as in the treatment: canola oil concentrate (94.7%:4.7%:0.8% oil:Foursome:Silwet L-77) 8 fl. oz., Urea 0.2 lb. N
Text: This study was established on a brown, desiccated, winter-dormant creeping bentgrass putting green (Agrostis palustris) (˜0.15 in ([…]) height of cut) on the same research center as in previous examples. The study was established in four replications of a randomized block design, using 2 ft.×7.5 ft. (0.6 m×2.3 m) plots with 6 in. (0.15 m) alleys. Treatments were applied with the backpack sprayer described in Example 1 operating at 40 PSI (2.8 kg/cm^2) with a 96 GPA (898 L/ha) spray volume. Treatments were applied in this “green-up”/winter dormancy break study on a 21-day schedule on Apr. 5, 2013, and Apr. 27, 2013 Turfgrass quality ratings in this example included observations of increased density, increased growth, and degree of color intensity change. These observations were taken on May 11, 2013, and were based on a visual 1 (worst) −9 (best) rating scale, with a 7-rating representing acceptable turfgrass “quality.”

Question: How did the “Turfgrass Quality” value turn out when `NC(N)=O` [Urea (46-0-0), urea] was run?
Answer: 6.0 c
